Experimental data as given in PubChem BioAssay (NCI).
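Following 48 hours of exposure in 96-well plates, responses at five concentrations were used to interpolate endpoints linearly. TGI: total growth inhibition.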

Columns and labels:
Assay in all cases: growth of human tumour cells (NCI), 48 h
[1] = system: HCT-116 colon
[2] = system: CAKI-1 renal
[3] = system: SNB-19 CNS
[4] = system: COLO 205 colon
[5] = system: RXF 393 renal
[6] = system: SNB-75 CNS
[7] = system: HCT-15 colon
[8] = system: UACC-257 melanoma
[9] = system: K-562 leukemia
[10] = system: ACHN renal
[11] = system: HT29 colon
[12] = system: SF-539 CNS
[13] = system: SW-620 colon
[14] = system: SK-MEL-2 melanoma
[15] = system: U251 CNS
[16] = system: OVCAR-3 ovarian
[17] = system: T-47D breast
[18] = system: MCF7 breast
[19] = system: BT-549 breast
[20] = system: HS 578T breast

Row | SMILES | TGI [1] [µM] | TGI [2] [µM] | TGI [3] [µM] | TGI [4] [µM] | TGI [5] [µM] | TGI [6] [µM] | TGI [7] [µM] | TGI [8] [µM] | TGI [9] [µM] | TGI [10] [µM] | TGI [11] [µM] | TGI [12] [µM] | TGI [13] [µM] | TGI [14] [µM] | TGI [15] [µM] | TGI [16] [µM] | TGI [17] [µM] | TGI [18] [µM] | TGI [19] [µM] | TGI [20] [µM]
1 | CC(=O)NC1=C(N)C(=O)c2ccccc2C1=O | 35 | > 100 | > 100 | 80.6 | > 100 | > 100 | > 100 | > 100 | > 100 | > 100 | > 100 | > 100 | 29.2 | > 100 | > 100 | 61.9 |  |  |  | 
2 | O=C(O)c1ccc(Nc2nc3nn(Cc4ccccc4)cc3c(=O)s2)cc1 | > 100 |  | > 100 | > 100 | > 100 |  | > 100 | > 100 | > 100 | > 100 |  | > 100 | > 100 | > 100 | > 100 | > 100 |  |  |  | 
3 | OC12CCC3(O)c4ccccc4C3C1c1ccccc12 (stereo not given) | > 100 |  | > 100 | > 100 | > 100 | > 100 | > 100 | > 100 | > 100 | > 100 | > 100 |  | > 100 | > 100 | > 100 |  |  |  |  | 
4 | NS(=O)(=O)c1nnc(NS(=O)(=O)c2ccc([N+](=O)[O-])cc2)s1 | > 100 | > 100 |  | > 100 | > 100 | > 100 | > 100 |  | > 100 | > 100 | > 100 | > 100 | > 100 | > 100 | > 100 | > 100 | > 100 | > 100 | > 100 | 
5 | O=C1/C(=C/c2ccccc2)CCCc2ccccc21 | 30.7 | 76.2 | 29.3 | 33.3 |  | > 100 | 32.3 | 33.3 | 49.4 | 47 | 36 | 32.1 | 32.9 | 29.9 | 29.1 | 35.2 |  | 41.6 | 36 | 40.4
6 | COc1ccc2c3c1OC1C(OC)(OC)CC4(C=C2)CN(C)CCC314 (stereo not given) | > 100 | > 100 | > 100 | > 100 | > 100 | > 100 | > 100 | > 100 | > 100 | > 100 | > 100 | > 100 | > 100 |  | > 100 | > 100 | > 100 | > 100 | > 100 | 
7 | O=c1[nH]nc(-c2ccc(F)cc2)cc1-c1ccccc1 | > 100 | > 100 | > 100 | > 100 | > 100 |  | > 100 | > 100 | > 100 | > 100 | > 100 | > 100 | > 100 | > 100 | > 100 | > 100 | > 100 | > 100 |  | > 100
8 | CCn1c(CSc2nc(-c3ccccc3)c(-c3ccccc3)[nH]2)n[nH]c1=S | > 100 |  | > 100 | > 100 |  | > 100 | > 100 | > 100 |  | > 100 | > 100 | > 100 |  | > 100 | > 100 | > 100 |  |  |  | 
9 | CC(=O)NC1C(OCc2ccccc2)OC(CO)C(O)C1OCC(=O)N[C@@H](C)C(=O)N[C@H](CCC(=O)NCCNc1ccc([N+](=O)[O-])c2[nH]c3ccccc3c(=O)c12)C(N)=O (stereo not given in full) | > 100 | > 100 | 93.2 | > 100 |  | 61.5 | 44.9 | 54.3 | > 100 | 61.4 | 85.8 | > 100 | > 100 |  | > 100 | > 100 | > 100 |  | 46 | > 100
10 | Cc1ccc(/S(Cc2ccccc2)=N\S(=O)(=O)c2ccc(C)cc2)cc1 (stereo not given) | > 100 |  | > 100 | > 100 | > 100 |  | > 100 | > 100 | > 100 | > 100 | > 100 | > 100 | > 100 |  | > 100 | > 100 | > 100 | > 100 | > 100 | 
11 | Cc1cc(NS(=O)(=O)c2ccc(Nc3c4ccccc4nc4c(C(=O)NCCO)cccc34)cc2)no1 |  | 88.2 | > 100 | > 100 |  | 53.9 | > 100 | > 100 | > 100 | > 100 | 78.8 |  | 83.8 | 74 | > 100 | > 100 | > 100 | 45.5 | 40.3 | > 100
12 | CC1(C)OC2OC(COC(=O)c3ccc(C#N)cc3)C3OC(C)(C)OC3C2O1 (stereo not given) | > 75 | > 75 | > 75 | > 75 | > 75 | > 75 | > 75 | > 75 | > 75 | > 75 | > 75 | > 75 | > 75 | > 75 | > 75 | > 75 |  | > 75 | > 75 | 
13 | C/C(O)=C(\C=NC(=S)c1ccncc1)C(=O)Nc1ccccc1C | > 100 | > 100 | > 100 | > 100 | > 100 | > 100 | > 100 | > 100 |  | > 100 | > 100 | > 100 | > 100 | > 100 | > 100 | > 100 | > 100 | > 100 | > 100 | 
14 | COc1cc(OC)c(OC)cc1/C=C/c1cc[n+](C)c2ccccc12 | > 100 | > 100 | > 100 | 19 | > 100 | > 100 | > 100 | 50.9 | 19.4 | > 100 | > 100 |  | > 100 |  | > 100 |  | > 100 | > 100 |  | 
15 | C/C(O[Si](C(C)C)(C(C)C)C(C)C)=C(\C)C(=O)N(C)c1ccccc1Cl | > 100 | > 100 | > 100 | > 100 | > 100 | > 100 | > 100 | > 100 |  | > 100 | > 100 | > 100 | > 100 |  | > 100 | > 100 | > 100 |  | > 100 | 
16 | CCN(CC)CCN1C(=O)C(=O)N(c2cccc3ccccc23)C1=O | > 10 | > 10 | > 10 | > 10 | > 10 | > 10 | > 10 |  | > 10 | > 10 | > 10 | > 10 | > 10 | > 10 | > 10 | > 10 | > 10 | > 10 |  | > 10
17 | CCOc1cc(-c2nc3cc(F)ccc3s2)ccc1O | 47.3 | 32.2 | 30.7 | 34.6 | 35.4 |  | 29 | 31 | 25.9 | 29.9 | 34.8 | 34.2 | 40.7 | 31.5 | 41.3 | 35 | 28.1 | 23 | 30.2 | 
18 | O=C1NC(=Nc2ccccc2)C(=Nc2ccccc2)N1c1ccccc1 | 32.3 | 31.7 | 31.4 | 28 | 29.2 | 30.9 | 28.2 | 29.8 | 72.2 | 30.6 | 29.6 | 31.5 | 30 | 29.3 | 28.9 |  | 33.2 |  |  | 42.9
19 | CC12CCC(CC1(Cl)Cl)C2 (stereo not given) |  | > 100 | > 100 | > 100 |  | > 100 | > 100 | > 100 | > 100 | > 100 | > 100 |  | > 100 | > 100 | > 100 | > 100 | > 100 | > 100 | > 100 | > 100
20 | C1=NCCOCCN=Cc2ccc(cc2)OCc2cccc(n2)COc2ccc1cc2 | > 100 |  | > 100 | > 100 | > 100 | > 100 | > 100 | > 100 | > 100 | > 100 | > 100 | > 100 | > 100 | > 100 | > 100 | > 100 |  | > 100 | > 100 | > 100
21 | CNC(=S)/C(C#N)=C(\N)N1CCCC1 | > 100 | > 100 | > 100 | > 100 | > 100 |  | > 100 |  | > 100 | > 100 | > 100 | > 100 | > 100 | > 100 | > 100 | > 100 | > 100 |  |  | > 100
22 | NC(N)=N/N=C/c1c(-c2cc([N+](=O)[O-])c(Cl)cc2Cl)nc2n1CCS2 | > 100 | > 100 | 16.5 |  | > 100 |  | > 100 | 54.2 | > 100 | > 100 | 27.5 | > 100 | > 100 | 9.45 | > 100 | > 100 |  |  | 9.7 | > 100
23 | Cc1nc(Nc2ccc(Cl)c(Cl)c2)sc1C(=O)/C=C/c1ccc2c(c1)OCO2 | 49.4 | 32.6 | 51.9 | 60.6 | 29.3 | 31.4 |  | > 100 | 89.9 | 45.1 | > 100 | 61.7 | > 100 |  | 49 | 30 | > 100 | > 100 | 46.1 | 
24 | O/N=C\C(=Nc1ccc(Cc2ccc(N=C(/C=N\O)NO)cc2)cc1)NO | > 100 | 69.2 | > 100 | > 100 |  |  | > 100 | > 100 | > 100 | > 100 | > 100 | > 100 | > 100 | > 100 | > 100 | > 100 |  |  |  | 
25 | O=C(c1ccco1)N(C(=S)N1CCN(c2ccccn2)CC1)c1ccccc1 | > 100 | > 100 | > 100 | > 100 | > 100 | > 100 | > 100 | > 100 | > 100 | > 100 | > 100 | > 100 | > 100 | > 100 | > 100 | > 100 |  |  |  | 
26 | C=CCN(CCN(CC=C)S(=O)(=O)c1ccc(C)cc1)S(=O)(=O)c1ccc(C)cc1 | > 100 |  | > 100 | > 100 | > 100 | > 100 | > 100 | > 100 | > 100 | > 100 | > 100 |  | > 100 |  | > 100 | > 100 | > 100 | > 100 |  | > 100
27 | Cc1ccc(C2C(Cl)C(=O)N2NC(=O)c2ccc(N)cc2)cc1 (stereo not given) | 28.3 | 38.3 | 33.5 | 44.6 |  | > 100 | 29.9 | 66.1 | 61.2 | > 100 | 39.9 | 41.6 | 41.3 | 19.8 | 28.3 | 36.7 |  |  |  | 
28 | COc1ccc(/C(Cl)=C(\C=O)c2ccc(Cl)cc2)cc1OC | 33.3 | 49.2 | > 100 | 13.2 | 20.7 | 11.5 | > 100 | 37.4 | 71.3 | 13.1 | 20.8 |  | 15.4 | 57.2 | 14.7 | 31.7 |  |  |  | 
